Data as given in patent US20260183295A1, “METHODS AND COMPOSITIONS FOR TREATING CANCER” (Onconova Therapeutics, Inc., priority 2022, published 2026).

Experiments:
MDA-MB-231 cells = assay: Transmission electron microscopy of cellular morphology; format: cell-based; conditions: 5 μM, 24 hours, compared to DMSO
Description: The effect of Compound 1 (5 μM) treatment for 24 hours on cellular morphology was assessed using transmission electron microscopy (TEM) and compared to DMSO. FIG. 27 and FIG. 28 show representative TEM images of MDA-MB-231 cells treated with DMSO or Compound 1.

CXCL10 = assay: qPCR of T-cell recruiting chemokine mRNA, PyMT cells; format: cell-based, mouse
Cyclin D1 = assay: Western blot, MDA-MB-231 cells, 24 hours; format: cell-based; conditions: 2.5, 5, 10 μM, versus Comparator 1, 2 and 4
Hs578T spheroids = assay: CellTiter Glo 3D spheroid viability; format: cell-based; conditions: 48 hours; Compound 1, Comparator 1, Comparator 2 5 μM; Comparator 4 10 μM
Description: Viability of the spheroids was assessed using CellTiter Glo 3D.

MICALL2 = target: T1, MICALL2 (Homo sapiens, UniProt Q8IY33); assay: CETSA-MS, MDA-MB-231 intact cells; format: cell-based; conditions: 2 μM and 20 μM
T1 construct: endogenous in cells; host or cells: MDA-MB-231
How it was run: (§1)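 Heat gradient applied to compound-incubated intact MDA-MB-231 cells; flash-frozen lysates sonicated and cleared, soluble proteins acetone-washed, then digested and labeled. Protein melting shifts were derived from mass spectrometry quantification.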

SMAD1 = target: T2, SMAD1 (Homo sapiens, UniProt Q15797); assay: CETSA-MS, MDA-MB-231 intact cells; format: cell-based; conditions: 2 μM and 20 μM
T2 construct: endogenous in cells; host or cells: MDA-MB-231
How it was run: as §1

LAMC1 = target: T3, LAMC1 (Homo sapiens, UniProt P11047); assay: CETSA-MS, MDA-MB-231 intact cells; format: cell-based; conditions: 2 μM and 20 μM
T3 construct: endogenous in cells; host or cells: MDA-MB-231
How it was run: as §1

GAK = target: T4, GAK (Homo sapiens, UniProt O14976); assay: CETSA-MS, MDA-MB-231 intact cells; format: cell-based; conditions: 2 μM and 20 μM
T4 construct: 148 targets unique to Compound 1 in MDA-MB-231 intact cells; endogenous in cells; host or cells: MDA-MB-231
How it was run: as §1

PTX3 = target: T5, PTX3 (Homo sapiens, UniProt P26022); assay: CETSA-MS, MDA-MB-231 intact cells; format: cell-based; conditions: 2 μM and 20 μM
T5 construct: endogenous in cells; host or cells: MDA-MB-231
How it was run: as §1

CDKN1A = target: T6, CDKN1A (Homo sapiens, UniProt P38936); assay: CETSA-MS, MDA-MB-231 intact cells; format: cell-based; conditions: 2 μM and 20 μM
T6 construct: endogenous in cells; host or cells: MDA-MB-231
How it was run: as §1

AAK1 = target: T7, AAK1 (Homo sapiens, UniProt Q2M2I8); assay: CETSA-MS, MDA-MB-231 intact cells; format: cell-based; conditions: 2 μM and 20 μM
T7 construct: endogenous in cells; host or cells: MDA-MB-231
How it was run: as §1

HNRNPUL2 = target: T8, HNRNPUL2 (Homo sapiens, UniProt Q1KMD3); assay: CETSA-MS, MDA-MB-231 intact cells; format: cell-based; conditions: 2 μM and 20 μM
T8 construct: endogenous in cells; host or cells: MDA-MB-231
How it was run: as §1

SND1 = target: T9, SND1 (Homo sapiens, UniProt Q7KZF4); assay: CETSA-MS, MDA-MB-231 intact cells; format: cell-based; conditions: 2 μM and 20 μM
T9 construct: endogenous in cells; host or cells: MDA-MB-231
How it was run: as §1

NPM1 = target: T10, NPM1 (Homo sapiens, UniProt P06748); assay: CETSA-MS, MDA-MB-231 intact cells; format: cell-based; conditions: 2 μM and 20 μM
T10 construct: endogenous in cells; host or cells: MDA-MB-231
How it was run: as §1

pRb = assay: Western blot, MDA-MB-231 cells, 24 hours; format: cell-based; conditions: 2.5, 5, 10 μM, versus Comparator 1, 2 and 4
NUAK1 = target: T11, NUAK1 (Homo sapiens, UniProt O60285); assay: NUAK1 NanoBret; format: cell-based
T11 sequence (O60285 1-661): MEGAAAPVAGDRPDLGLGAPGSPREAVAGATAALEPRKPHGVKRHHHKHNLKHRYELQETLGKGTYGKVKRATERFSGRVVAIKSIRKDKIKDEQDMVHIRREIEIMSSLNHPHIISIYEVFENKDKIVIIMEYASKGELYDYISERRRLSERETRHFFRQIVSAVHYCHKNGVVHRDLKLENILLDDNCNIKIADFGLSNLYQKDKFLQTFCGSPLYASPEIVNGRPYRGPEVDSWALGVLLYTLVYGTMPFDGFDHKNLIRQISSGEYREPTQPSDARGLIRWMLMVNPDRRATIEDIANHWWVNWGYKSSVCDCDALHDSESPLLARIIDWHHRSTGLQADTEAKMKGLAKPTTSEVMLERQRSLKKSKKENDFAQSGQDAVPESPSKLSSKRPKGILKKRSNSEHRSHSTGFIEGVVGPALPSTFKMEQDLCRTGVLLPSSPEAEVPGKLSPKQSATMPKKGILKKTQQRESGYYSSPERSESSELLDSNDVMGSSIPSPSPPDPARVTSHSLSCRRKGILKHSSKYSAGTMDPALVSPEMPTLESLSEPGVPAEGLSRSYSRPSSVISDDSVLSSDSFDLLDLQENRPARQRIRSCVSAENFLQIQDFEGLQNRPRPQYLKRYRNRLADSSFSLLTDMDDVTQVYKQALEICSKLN

PARP in MDA-MB-231 = assay: PARP cleavage after 72 hours treatment; format: cell-based; conditions: MDA-MB-231 (TNBC)
Description: (§2) The effects on the different treatment conditions on BUB 1 levels and PARP cleavage were also assessed. For both MNA-MB-231 cells, Compound 1 alone or with HCQ or SBI decreased BUB1 levels and cleaved PARP with […] decreases in cell viability observed for all treatments except Compound 1+SBI in MMA-MB-231 cells. The effects of Compound 1 with or without autophagy inhibitors was less pronounced in HCC-1937 cells.

PARP in MDA-MB-468 = assay: PARP cleavage after 72 hours treatment; format: cell-based; conditions: MDA-MB-468 (TNBC)
Description: as §2

PARP in HCC-1937 = assay: PARP cleavage after 72 hours treatment; format: cell-based; conditions: HCC-1937 (TNBC)
Description: as §2

[1] = system: T-47D, HCC-1937, HS-578T, BT-474, MDA-MB-468, and MD-MB-453 cell lines; assay: MTT cell viability of breast cancer cell line panel versus comparators, 48 hrs (FIG. 17); format: cell-based

T9 sequence (Q7KZF4 whole entry): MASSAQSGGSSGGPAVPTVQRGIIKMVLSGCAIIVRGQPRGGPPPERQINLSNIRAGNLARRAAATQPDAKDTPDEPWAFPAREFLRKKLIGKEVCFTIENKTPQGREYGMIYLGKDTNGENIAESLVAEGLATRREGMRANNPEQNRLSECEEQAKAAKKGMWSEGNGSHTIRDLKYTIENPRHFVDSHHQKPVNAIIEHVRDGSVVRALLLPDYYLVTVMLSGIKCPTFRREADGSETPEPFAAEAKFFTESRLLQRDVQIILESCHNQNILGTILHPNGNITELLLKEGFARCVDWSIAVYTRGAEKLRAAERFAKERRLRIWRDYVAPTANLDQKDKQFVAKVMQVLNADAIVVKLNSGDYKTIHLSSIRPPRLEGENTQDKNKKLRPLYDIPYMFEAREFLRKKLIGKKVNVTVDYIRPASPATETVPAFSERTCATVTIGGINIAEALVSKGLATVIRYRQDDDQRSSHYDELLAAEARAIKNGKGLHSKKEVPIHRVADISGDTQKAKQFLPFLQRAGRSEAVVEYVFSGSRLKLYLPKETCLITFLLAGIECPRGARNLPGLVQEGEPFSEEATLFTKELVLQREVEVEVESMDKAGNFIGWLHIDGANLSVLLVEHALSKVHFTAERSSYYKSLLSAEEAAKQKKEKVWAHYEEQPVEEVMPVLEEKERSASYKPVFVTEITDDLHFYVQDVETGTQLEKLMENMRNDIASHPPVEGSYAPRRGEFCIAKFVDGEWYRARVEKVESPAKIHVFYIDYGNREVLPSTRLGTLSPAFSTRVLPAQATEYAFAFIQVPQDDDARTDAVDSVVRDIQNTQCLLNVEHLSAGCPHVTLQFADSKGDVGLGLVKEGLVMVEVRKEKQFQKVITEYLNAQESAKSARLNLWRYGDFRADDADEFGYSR
T8 sequence (Q1KMD3 whole entry): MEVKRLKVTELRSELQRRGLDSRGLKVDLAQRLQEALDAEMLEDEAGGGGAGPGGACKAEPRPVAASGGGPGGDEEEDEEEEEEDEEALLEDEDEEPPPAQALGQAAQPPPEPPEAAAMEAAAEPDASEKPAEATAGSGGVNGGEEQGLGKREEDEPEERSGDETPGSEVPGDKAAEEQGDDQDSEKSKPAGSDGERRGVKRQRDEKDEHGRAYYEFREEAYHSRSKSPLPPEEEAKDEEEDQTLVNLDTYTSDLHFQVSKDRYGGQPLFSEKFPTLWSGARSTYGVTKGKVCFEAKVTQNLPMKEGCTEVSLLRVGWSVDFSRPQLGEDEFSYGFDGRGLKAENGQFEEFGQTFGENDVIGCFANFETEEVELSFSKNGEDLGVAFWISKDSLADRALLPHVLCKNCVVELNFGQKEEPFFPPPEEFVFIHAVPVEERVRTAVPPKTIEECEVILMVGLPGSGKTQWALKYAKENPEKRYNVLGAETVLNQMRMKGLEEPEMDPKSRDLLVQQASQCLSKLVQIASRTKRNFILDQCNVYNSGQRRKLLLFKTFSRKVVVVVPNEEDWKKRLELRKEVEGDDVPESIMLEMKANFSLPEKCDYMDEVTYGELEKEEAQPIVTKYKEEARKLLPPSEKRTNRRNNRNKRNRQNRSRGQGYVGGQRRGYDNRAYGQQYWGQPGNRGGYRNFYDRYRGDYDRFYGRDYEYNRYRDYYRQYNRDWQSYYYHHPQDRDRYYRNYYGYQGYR
T5 sequence (P26022 18-381): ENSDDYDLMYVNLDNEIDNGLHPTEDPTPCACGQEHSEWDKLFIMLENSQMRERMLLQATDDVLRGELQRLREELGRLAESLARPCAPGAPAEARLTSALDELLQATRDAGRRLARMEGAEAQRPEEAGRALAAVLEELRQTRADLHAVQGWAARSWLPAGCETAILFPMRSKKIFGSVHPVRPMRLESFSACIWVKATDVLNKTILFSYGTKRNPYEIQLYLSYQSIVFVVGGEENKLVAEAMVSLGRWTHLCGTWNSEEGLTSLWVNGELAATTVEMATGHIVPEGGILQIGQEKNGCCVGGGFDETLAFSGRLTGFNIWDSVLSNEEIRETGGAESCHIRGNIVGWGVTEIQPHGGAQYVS
T3 sequence (P11047 34-1609): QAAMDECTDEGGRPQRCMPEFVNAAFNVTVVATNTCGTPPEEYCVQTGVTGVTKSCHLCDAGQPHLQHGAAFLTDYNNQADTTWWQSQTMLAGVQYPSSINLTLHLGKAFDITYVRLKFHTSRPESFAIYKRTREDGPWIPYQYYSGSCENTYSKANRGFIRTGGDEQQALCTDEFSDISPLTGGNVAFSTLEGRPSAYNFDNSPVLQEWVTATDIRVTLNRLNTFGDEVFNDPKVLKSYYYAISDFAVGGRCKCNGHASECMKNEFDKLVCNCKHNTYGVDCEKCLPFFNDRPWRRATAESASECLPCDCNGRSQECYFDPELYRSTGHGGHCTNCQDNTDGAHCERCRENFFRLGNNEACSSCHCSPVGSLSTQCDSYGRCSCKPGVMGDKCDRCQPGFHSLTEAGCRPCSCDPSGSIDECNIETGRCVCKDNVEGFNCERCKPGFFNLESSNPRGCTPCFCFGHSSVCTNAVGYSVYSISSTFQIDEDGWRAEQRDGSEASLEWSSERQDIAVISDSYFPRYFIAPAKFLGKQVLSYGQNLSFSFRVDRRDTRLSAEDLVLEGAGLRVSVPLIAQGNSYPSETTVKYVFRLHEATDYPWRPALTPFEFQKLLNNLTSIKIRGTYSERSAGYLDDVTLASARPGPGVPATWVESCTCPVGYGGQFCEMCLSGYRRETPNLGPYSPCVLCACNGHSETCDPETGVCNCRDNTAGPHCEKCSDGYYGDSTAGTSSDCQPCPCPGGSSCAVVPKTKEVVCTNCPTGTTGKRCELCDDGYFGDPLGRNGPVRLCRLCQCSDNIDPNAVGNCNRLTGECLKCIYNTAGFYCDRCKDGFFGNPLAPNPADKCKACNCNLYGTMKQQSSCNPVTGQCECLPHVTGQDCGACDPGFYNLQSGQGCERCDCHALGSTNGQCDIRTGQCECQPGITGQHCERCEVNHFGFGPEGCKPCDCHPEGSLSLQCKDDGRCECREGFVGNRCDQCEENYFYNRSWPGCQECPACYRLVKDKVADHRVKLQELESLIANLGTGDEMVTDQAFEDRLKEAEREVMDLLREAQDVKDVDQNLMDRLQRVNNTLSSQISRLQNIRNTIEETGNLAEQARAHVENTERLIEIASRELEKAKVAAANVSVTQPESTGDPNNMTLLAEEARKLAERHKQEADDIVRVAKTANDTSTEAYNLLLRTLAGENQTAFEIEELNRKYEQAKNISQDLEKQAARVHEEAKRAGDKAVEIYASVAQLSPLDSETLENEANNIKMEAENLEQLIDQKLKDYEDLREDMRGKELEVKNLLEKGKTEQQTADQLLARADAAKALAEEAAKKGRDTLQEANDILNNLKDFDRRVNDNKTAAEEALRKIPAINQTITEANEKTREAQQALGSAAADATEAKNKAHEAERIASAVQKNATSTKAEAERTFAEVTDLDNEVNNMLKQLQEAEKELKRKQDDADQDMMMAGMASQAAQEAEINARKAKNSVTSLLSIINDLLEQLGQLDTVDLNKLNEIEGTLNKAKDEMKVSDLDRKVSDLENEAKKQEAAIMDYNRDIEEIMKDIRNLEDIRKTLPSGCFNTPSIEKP
T4 sequence (O14976 whole entry): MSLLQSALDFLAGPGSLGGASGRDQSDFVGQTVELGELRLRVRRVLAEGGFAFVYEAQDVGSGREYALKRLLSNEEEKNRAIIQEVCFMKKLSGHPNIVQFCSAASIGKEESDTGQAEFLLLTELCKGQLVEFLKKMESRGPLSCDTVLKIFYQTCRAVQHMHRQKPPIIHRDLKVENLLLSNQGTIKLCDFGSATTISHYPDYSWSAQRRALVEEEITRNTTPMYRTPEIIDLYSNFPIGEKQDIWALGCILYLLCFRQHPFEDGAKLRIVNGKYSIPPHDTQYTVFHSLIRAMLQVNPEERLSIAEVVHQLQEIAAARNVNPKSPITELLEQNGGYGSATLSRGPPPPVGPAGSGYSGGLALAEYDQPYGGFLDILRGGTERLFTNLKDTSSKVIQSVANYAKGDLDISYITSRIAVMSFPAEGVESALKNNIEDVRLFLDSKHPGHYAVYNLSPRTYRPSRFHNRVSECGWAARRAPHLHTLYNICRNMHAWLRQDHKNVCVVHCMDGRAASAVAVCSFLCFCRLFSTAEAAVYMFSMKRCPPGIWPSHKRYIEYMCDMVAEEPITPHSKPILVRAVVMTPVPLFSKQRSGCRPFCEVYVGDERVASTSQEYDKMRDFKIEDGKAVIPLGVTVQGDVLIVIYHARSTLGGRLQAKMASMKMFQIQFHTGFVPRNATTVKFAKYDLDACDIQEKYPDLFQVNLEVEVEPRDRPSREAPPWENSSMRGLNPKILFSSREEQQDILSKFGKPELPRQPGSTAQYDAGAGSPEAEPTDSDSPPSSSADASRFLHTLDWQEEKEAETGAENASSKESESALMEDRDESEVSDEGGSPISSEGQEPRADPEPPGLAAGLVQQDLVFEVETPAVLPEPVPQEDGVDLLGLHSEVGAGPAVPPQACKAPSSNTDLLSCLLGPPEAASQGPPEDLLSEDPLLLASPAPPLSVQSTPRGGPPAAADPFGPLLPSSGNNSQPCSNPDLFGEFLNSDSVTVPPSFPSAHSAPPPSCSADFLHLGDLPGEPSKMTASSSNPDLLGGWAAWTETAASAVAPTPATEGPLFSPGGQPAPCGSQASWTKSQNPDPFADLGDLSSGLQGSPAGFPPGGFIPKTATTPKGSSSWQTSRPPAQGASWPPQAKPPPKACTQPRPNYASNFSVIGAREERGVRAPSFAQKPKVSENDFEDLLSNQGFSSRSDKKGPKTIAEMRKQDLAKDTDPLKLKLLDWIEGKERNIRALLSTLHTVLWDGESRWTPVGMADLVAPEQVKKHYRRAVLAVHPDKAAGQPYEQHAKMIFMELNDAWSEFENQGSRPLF
T6 sequence (P38936 whole entry): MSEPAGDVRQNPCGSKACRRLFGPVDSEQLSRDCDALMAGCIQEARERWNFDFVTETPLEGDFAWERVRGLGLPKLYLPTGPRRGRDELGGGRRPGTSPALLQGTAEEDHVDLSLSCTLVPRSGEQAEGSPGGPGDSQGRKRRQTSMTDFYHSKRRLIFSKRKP

For CN1CCN(c2ccc(Nc3ncc4cc(C#N)c(=O)n(C5CCCC5)c4n3)cc2)CC1 [Compound 1, 8-cyclopentyl-2-((4-(4-methylpiperazin-1-yl)phenyl)amino)-7-oxo-7,8-dihydropyrido[2,3-d]pyrimidine-6-carbonitrile], the “cellular morphology (TEM)” value (MDA-MB-231 cells) was “extensive vacuolization”, the “time of peak CXCL10 mRNA levels” value (CXCL10) was roughly 48 h and the “CXCL10 mRNA levels” value (CXCL10; 24, 48 and 72 hours) was “large increase”. The “Cyclin D1 levels” value (Cyclin D1) was “decreasing”, the “decrease in organoid viability compared to DMSO” value (Hs578T spheroids) was roughly 40% and the “Group (CETSA-MS thermal shift)” value (MICALL2) was “Destabilization”. The “Group (CETSA-MS thermal shift)” value (SMAD1) was “Destabilization”, the “Group (CETSA-MS thermal shift)” value (LAMC1) was “Stabilization” and the “Group (CETSA-MS thermal shift)” value (GAK) was “Stabilization”. The “Group (CETSA-MS thermal shift)” value (PTX3) was “Stabilization”, the “Group (CETSA-MS thermal shift)” value (CDKN1A) was “Destabilization” and the “Group (CETSA-MS thermal shift)” value (AAK1) was “Stabilization”. The “Group (CETSA-MS thermal shift)” value (HNRNPUL2) was “Stabilization”, the “Group (CETSA-MS thermal shift)” value (SND1) was “Stabilization” and the “Group (CETSA-MS thermal shift)” value (NPM1) was “Destabilization”. For the same compound, the pRb levels (pRb) was “decreasing”, the IC50 (NUAK1) was 42 nM and the “PARP Cleavage” value (PARP in MDA-MB-231) was “Yes”. The “PARP Cleavage” value (PARP in MDA-MB-468) was “Yes”, the “PARP Cleavage” value (PARP in HCC-1937) was “No” and the “dose dependence of cell death (MTT)” value ([1]; 2.5, 5.0, 10 μM, HCC-1937, Hs-578T, BT-474, MDA-MB-468, MDA-MB-453) was “dose-dependent effect”. For the same compound, the “cell death (MTT), comparison of treatments” value ([1]; Comparator 4 10 μM, Comparator 1 and 2 5 μM, Compound 1 2.5, 5.0, 10 μM) was “greater potency in inducing cell death compared to both Comparator 1 and Comparator 2”.
